Calls of active or inactive are those of the source. The calls are words filed in the database; no cut-off is given here.
Columns and labels:
[1] = target: T1, Solute carrier family 22 member 12 (Homo sapiens, UniProt Q96S37); assay: Inhibition of human URAT1 mediated 14C-uric acid uptake expressed in HEK293 cells using 14C-uric acid as substrate incubated for 30 mins by liquid scintillation counting analysis; type: cell-based
T1 sequence (Q96S37 whole entry): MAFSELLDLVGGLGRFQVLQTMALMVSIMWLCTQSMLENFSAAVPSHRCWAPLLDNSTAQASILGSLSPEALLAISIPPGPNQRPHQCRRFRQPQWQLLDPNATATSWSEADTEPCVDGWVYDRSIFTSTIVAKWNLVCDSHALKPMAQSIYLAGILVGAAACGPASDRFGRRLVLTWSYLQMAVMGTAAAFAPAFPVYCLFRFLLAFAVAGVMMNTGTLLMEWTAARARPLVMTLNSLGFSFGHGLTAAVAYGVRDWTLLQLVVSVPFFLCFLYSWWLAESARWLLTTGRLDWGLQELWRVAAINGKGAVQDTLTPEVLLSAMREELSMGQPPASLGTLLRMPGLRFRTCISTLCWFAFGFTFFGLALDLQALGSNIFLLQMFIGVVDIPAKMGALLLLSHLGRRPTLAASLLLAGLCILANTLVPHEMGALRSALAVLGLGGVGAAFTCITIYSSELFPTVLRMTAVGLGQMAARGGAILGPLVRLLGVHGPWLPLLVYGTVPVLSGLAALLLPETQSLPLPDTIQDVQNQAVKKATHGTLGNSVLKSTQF

Mus musculus [2] = assay: Anti-hyperuricemic activity against hypoxanthine/potassium oxonate-induced Kunming mouse model assessed as decrease in serum uric acid ratio at 2 mg/kg, sc measured after 4 hrs; type: functional; design: scale not given: the % may be the effect or the level left
Mus musculus [3] = assay: Anti-hyperuricemic activity against hypoxanthine/potassium oxonate-induced Kunming mouse model assessed as reduction in serum uric acid level at 2 mg/kg, sc measured after 4 hrs (reference value: 1010.00 +/- 51.16 uM); type: functional
[4] = target: T2, Solute carrier family 2, facilitated glucose transporter member 9 (Homo sapiens) (UniProt Q9NRM0); assay: Inhibition of GLUT9 (unknown origin) transfected in HEK293 cells assessed as inhibition of uric acid-induced current at 100 uM by whole cell patch clamp analysis; type: cell-based
T2 sequence (whole entry): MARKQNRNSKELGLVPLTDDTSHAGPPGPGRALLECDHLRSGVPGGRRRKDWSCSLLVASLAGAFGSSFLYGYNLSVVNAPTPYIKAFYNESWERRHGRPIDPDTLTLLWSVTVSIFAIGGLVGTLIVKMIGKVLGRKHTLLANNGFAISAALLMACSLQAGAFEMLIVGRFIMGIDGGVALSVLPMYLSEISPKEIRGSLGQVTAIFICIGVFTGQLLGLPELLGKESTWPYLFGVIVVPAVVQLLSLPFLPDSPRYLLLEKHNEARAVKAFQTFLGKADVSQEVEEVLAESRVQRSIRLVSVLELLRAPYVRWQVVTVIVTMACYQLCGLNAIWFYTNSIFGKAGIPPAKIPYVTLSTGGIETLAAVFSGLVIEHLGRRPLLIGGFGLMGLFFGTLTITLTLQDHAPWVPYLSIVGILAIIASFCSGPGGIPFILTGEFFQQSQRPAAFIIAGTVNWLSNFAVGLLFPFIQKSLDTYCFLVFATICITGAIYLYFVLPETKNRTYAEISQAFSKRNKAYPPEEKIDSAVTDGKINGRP

[5] = Acute toxicity in Kunming female mouse assessed as survival rate at 1000 mg/kg, IG; type: organism-based; settings: in vivo, po, read-out: Activity
[6] = Acute toxicity in Kunming male mouse assessed as survival rate at 1000 mg/kg, IG; type: organism-based; settings: in vivo, po, read-out: Activity
[7] = Acute toxicity in Kunming female mouse assessed as clonic convulsion at 1000 mg/kg, IG; type: organism-based; settings: in vivo, po
[8] = Acute toxicity in Kunming female mouse assessed as anorexia at 1000 mg/kg, IG; type: organism-based; settings: in vivo, po
[9] = Acute toxicity in Kunming female mouse assessed as ruffled fur at 1000 mg/kg, IG; type: organism-based; settings: in vivo, po
[10] = Acute toxicity in Kunming female mouse assessed as effect on body weight changes at 1000 mg/kg, IG measured for 7 days; type: organism-based; settings: in vivo, po, 168 h, time 7 day
[11] = Acute toxicity in Kunming female mouse assessed as lethargy at 1000 mg/kg, IG; type: organism-based; settings: in vivo, po
[12] = target: T3, Solute carrier family 2, facilitated glucose transporter member 9 (Homo sapiens, UniProt Q9NRM0); assay: Inhibition of GLUT9 (unknown origin) transfected in HEK293 cells assessed as inhibition of uric acid-induced current by whole cell patch clamp analysis; type: cell-based
T3 sequence (Q9NRM0 whole entry): T2 sequence (whole entry)

SMILES | IC50 [1] [µM] | Activity (Mus musculus [2]) [%] | Activity (Mus musculus [3]) [µM] | other results
O=C(CSc1nc2sccc2c(=O)n1-c1ccc(C2CC2)c2ccccc12)NS(=O)(=O)c1ccc(F)cc1F | 9.92 |  |  | 
O=C(O)CSc1nc2sccc2c(=O)n1-c1ccc(C2CC2)c2ccccc12 |  |  |  | IC50 ([1]; hek293): 3.27 µM
O=C(O)CSc1ccncc1C(=O)N1CCc2ccccc2C1 |  | 28.73 | 682.25 | 
O=C(c1cnccc1SC1(C(=O)O)CCC1)N1CCc2ccccc2C1 |  | 36 | 621.33 | 
CS(=O)(=O)NC(=O)CSc1nc2sccc2c(=O)n1-c1ccc(C2CC2)c2ccccc12 | 7.31 | 51.85 | 533.67 | 
O=C(O)CSc1ccncc1C(=O)N1CCOc2ccccc21 |  | 14.4 | 802.33 | 
O=C(O)CCSc1ccncc1C(=O)N1CCOc2ccccc21 |  | 24.3 | 719.33 | 
CC(Sc1ccncc1C(=O)N1CCOc2ccccc21)C(=O)O (configuration not stated) |  | 40.93 | 580 | 
CC(C)S(=O)(=O)NC(=O)CSc1nc2sccc2c(=O)n1-c1ccc(C2CC2)c2ccccc12 | 9.25 |  |  | 
CC(C)(C)S(=O)(=O)NC(=O)CSc1nc2sccc2c(=O)n1-c1ccc(C2CC2)c2ccccc12 | 11.1 |  |  | 
O=C(CSc1nc2sccc2c(=O)n1-c1ccc(C2CC2)c2ccccc12)NS(=O)(=O)c1cc(F)cc(F)c1 | 7.68 | 54.17 | 512.33 | 
O=C(O)CSc1nnc(Br)n1-c1ccc(C2CC2)c2ccccc12 |  | 26 | 763 | inhibition [4]: inactive; survival [5]: 20%; survival [6]: 40%
O=C(CSc1nc2sccc2c(=O)n1-c1ccc(C2CC2)c2ccccc12)NS(=O)(=O)c1ccc(Br)cc1 | 7.56 | 73.29 | 336.67 | Activity [7]: Non-Toxic; Activity [8]: Non-Toxic; Activity [9]: Non-Toxic; survival [5]: 100%; Activity [10]: Non-Toxic; Activity [11]: Non-Toxic; IC50 [12]: 56 µM; survival [6]: 100%
CC(Sc1ccncc1C(=O)N1CCc2ccccc2C1)C(=O)O (configuration not stated) |  | 52.9 | 479.67 | 
O=C(CSc1nc2sccc2c(=O)n1-c1ccc(C2CC2)c2ccccc12)NS(=O)(=O)c1ccc(C(F)(F)F)cc1 | 16.2 |  |  | 
O=C(CSc1nc2sccc2c(=O)n1-c1ccc(C2CC2)c2ccccc12)NS(=O)(=O)c1ccc(F)cc1 | 11.4 |  |  | 
O=C(CSc1nc2sccc2c(=O)n1-c1ccc(C2CC2)c2ccccc12)NS(=O)(=O)c1ccc(Cl)s1 | 9.7 |  |  | 
O=C(CSc1nc2sccc2c(=O)n1-c1ccc(C2CC2)c2ccccc12)NS(=O)(=O)C1CC1 | 11.6 |  |  | 
O=C(CSc1nc2sccc2c(=O)n1-c1ccc(C2CC2)c2ccccc12)NS(=O)(=O)c1ccc(O)cc1 | 20.3 |  |  | 
CC(C)(C)c1ccc(S(=O)(=O)NC(=O)CSc2nc3sccc3c(=O)n2-c2ccc(C3CC3)c3ccccc23)cc1 | 13.5 |  |  | 
O=C(CSc1nc2sccc2c(=O)n1-c1ccc(C2CC2)c2ccccc12)NS(=O)(=O)c1ccccc1 | 11.4 |  |  | 
O=C(CSc1nc2sccc2c(=O)n1-c1ccc(C2CC2)c2ccccc12)NS(=O)(=O)c1cccc([N+](=O)[O-])c1 | 11.5 |  |  | 
CCS(=O)(=O)NC(=O)CSc1nc2sccc2c(=O)n1-c1ccc(C2CC2)c2ccccc12 | 7.9 | 36.39 | 675.67 | 
O=C(CSc1nc2sccc2c(=O)n1-c1ccc(C2CC2)c2ccccc12)NS(=O)(=O)c1ccccc1[N+](=O)[O-] | 9.79 |  |  | 
O=C(CSc1nc2sccc2c(=O)n1-c1ccc(C2CC2)c2ccccc12)NS(=O)(=O)c1ccc(Cl)cc1 | 11.9 |  |  | 
O=C(CSc1nc2sccc2c(=O)n1-c1ccc(C2CC2)c2ccccc12)NS(=O)(=O)c1ccc([N+](=O)[O-])cc1 | 9.72 |  |  | 

Reference: ChEMBL document CHEMBL5247582 (Eur J Med Chem, 2022)
